Like-named read-outs stand apart in the source and are kept apart here.
Tested on: E. coli
Experimental: Susceptibility cultures can be started.
(§1) Then, the Proteus automated system can add 12 μL of 1M NaOH to the 30 μL sample. […] The Proteus system can then add 8 μL of 1M HCl. Ten microliters of the result can be placed on each of 4 sensors of the 16 available on the GeneFluidics, Inc. 16X EC chip. This chip can be incubated in the Proteus machine for 11 minutes at 43° C. After completion of this incubation, the chip can be washed and dried by Proteus. Ten microliters of 0.5 U/mL anti-fluorescein horseradish peroxidase (HRP) Fab fragments (Roche; diluted in 1.0% casein in […] phosphate-buffered saline, pH 7.4) can be injected into the sensor chambers and incubated for 2 minutes at 25° C.
as §1
For instance, a Helios potentiostat from GeneFluidics, Inc. was connected to the electrodes of the sensor chips and a potential of −250 mV was applied across the electrodes for one minute. During this time, the current generated by the electrochemical reaction was measured by the potentiostat. The average current measured in the final 10 seconds of the potentiostat reading constituted the final result of the assay.

O=C(O)c1cn(C2CC2)c2cc(N3CCNCC3)c(F)cc2c1=O [ciprofloxacin]
average current signal of the four sensors (base susceptibility test) (0 minute susceptibility culture time, 0.4 μg antibiotic in 100 μL Mueller-Hinton broth, 5×10^5 CFU/mL): 30 nA | increase over the current level from base susceptibility test (60 minute susceptibility culture time): 0% | current of processed sample (60 minute susceptibility culture time, 0.4 μg antibiotic in 100 μL Mueller-Hinton broth): 30 nA | increase over the current level from base susceptibility test (90 minute susceptibility culture time): 0% | reported result (resistant / susceptible) (E. coli from patient urine sample, at the concentration of antibiotic in the culture): susceptible
